# Source: patent publication US20260018245A1, “SYSTEMS AND METHODS FOR IDENTIFYING AND TARGETING COLLATERAL LETHAL GENES” (The Regents of the University of Michigan, priority 2022, published 2026)
# How the values were obtained:
# Format in all cases: cell-based
# SKOV3 and OVCAR8 cells [1] = test: MTHFD2 inhibitor in cells with NNT, IDH2 or IDH3A knocked down; settings: IDH2 or IDH3A knockdown, UQCR11-intact or -null cells, 10 μM, 72 h
# Procedure: (§1) FIG. 15 Investigating metabolic consequence of Complex III impairment and activity of paralogous pathways other than oxidative MTHFD2. (a) Effect of MTHFD2 inhibitor ([…]) and uridine (50 μM) supplementation on viability of parental ovarian cancer lines that are UQCR11—intact (SKOV3) or UQCR11-null (HeyA8, OVCAR8, CAOV3). Data are representative of two independent experiments and presented as mean±s.d. (n=6). Data analyzed with one-way ANOVA with Tukey's correction for multiple comparisons. (b) Effect of MTHFD2 inhibitor and uridine supplementation on viability of isogenic SKOV3 lines expressing shScramble or shUQCR11. […] Data analyzed with one-way ANOVA with Tukey's correction for multiple comparisons. […] (n=6) and analyzed using two-tailed Student's t-test. (d) mRNA expression of NNT, IDH2, IDH3A measured via qRT-PCR after knocking down with shNNT, shIDH2, and shIDH3A, relative to scramble shRNA (shScr), verifying knockdown efficiency in SKOV3 and OVCAR8 cell-lines. […] Data analyzed using unpaired two-tailed Student's t-test. […] Data are analyzed using ordinary one-way ANOVA with multiple comparisons. […] Loss of viability calculated by comparing respective viability in vehicle control-treated cells to MTHFD2 inhibitor-treated cells. […] (n=6) and analyzed using ordinary one-way ANOVA with Dunnett's correction for multiple comparisons. Error bars are calculated using propagation of error principles.
# [2] = test system: parental ovarian cancer lines and isogenic SKOV3 lines; test: Viability with MTHFD2 inhibitor and uridine supplementation; settings: UQCR11-null parental and SKOV3 shUQCR11 cells compared with UQCR11-intact cells
# Procedure: as §1
# [3] = test system: isogenic SKOV3 cells (shScramble, shUQCR11); test: Nucleotide profiling after MTHFD2 inhibitor vs vehicle
# Excerpt: FIG. 14 Analysis of global metabolomics and nucleotide pathways of ovarian cancer lines with and without UQCR11 deletion. (a) Pathway enrichment analysis using metabolic pathways in the KEGG database comparing UQCR11-intact and -null ovarian cancer lines from the CCLE panel (n=50). Pathway coverage represents fraction of metabolites in the KEGG pathway that have available data. Data analyzed using weighted z-test for pathway analysis built into MetaboAnalyst 5.0. (b) Pathway enrichment analysis on all metabolite concentrations measured in SKOV3 (UQCR11-intact) and OVCAR8, HeyA8 and CAOV3 (UQCR11-null) cells for metabolites involved in nucleotide metabolism. Pathway coverage, that is, percentage of metabolites measured from each pathway are represented by a gradient color-scale. […] Data analyzed using weighted z-test for pathway analysis built into MetaboAnalyst 5.0. […] Data are combined from two independent experiments and analyzed using two-sample t-tests corrected for multiple hypothesis testing, built into MetaboAnalyst 5.0. […] (d) Metabolites involved in pyrimidine synthesis and salvage are measured in SKOV3 (UQCR11-intact) and OVCAR8, HeyA8 and CAOV3 (UQCR11-null) cells and overlaid onto the pyrimidine metabolic pathway map. […] Data are combined from two independent experiments and analyzed using two-sample t-tests corrected for multiple hypothesis testing, built into MetaboAnalyst 5.0 (n=6). […]
# SKOV3 and OVCAR8 cells [4] = test: De novo pyrimidine synthesis flux with [13C4]-aspartate tracer; settings: SKOV3 and OVCAR8, with vs without MTHFD2 inhibitor
compound,measurement,setting,value
Cc1c(N2CCN(C)[C@@H](C)C2)ccc2c3c(c(=O)oc12)CN(C(=O)c1ccc(NS(C)(=O)=O)c(OC(F)(F)F)c1)CC3 [DS18561882],effect of MTHFD2 inhibition on viability,SKOV3 and OVCAR8 cells [1],not influenced
same,proliferation,[2],suppressed proliferation
same,differentially abundant metabolites (nucleotides),[3],three out of 49
same,de novo pyrimidine synthesis flux,SKOV3 and OVCAR8 cells [4],similarly reduced
